Data from patent US11738095B2, “Cyanine-containing compounds for cancer imaging and treatment” (Emory University, priority 2007, dated 2023).
Read-outs that look alike come from different tables or passages of the source.

How the values were obtained:
[1] = test system: spontaneous prostate tumor in a TRAMP mouse; experiment: imaging of spontaneous TRAMP prostate tumor, fresh and after fixation (FIG. 16B, C); assay type: in vivo
Method: NIR imaging studies were performed to assess pharmacokinetics of the IR783 in vivo. […] This mouse was injected i.p with 0.2 μg/kg IR783 at 0 hrs. […] The dye retention in formalin fixed tissues can be as long as several weeks (data not shown).

[2] = Method: Mice were injected with 20 μg/Kg of IR783 and IR780 (which was 100× of the imaging dose which was 0.2 μg/Kg) and results were compared for a 28 day period. […] Zero grams means the mouse died. ICG is a FDA approved dye used for several diagnostic purposes. ICG is considered to be nontoxic. ICG is used here as a measure of the toxicity of the tested compounds.
Toxicity test of dye based on body weight gained during the treatment period from 0 to 14 days.

[3] = test system: SN12C, ACHN; experiment: uptake of IR783 in cell lines: renal; assay type: cell-based, human
Description: The uptake of IR783 was studied and confirmed in a variety of human cell lines as shown below: […]

For `CC1(C)C(=CC=C2CCCC(C=CC3=[N+](CCCCS(=O)(=O)[O-])c4ccccc4C3(C)C)=C2Cl)N(CCCCS(=O)(=O)[O-])c2ccccc21.[Na+]` [IR783], the “imaging of spontaneous prostate tumor” value ([1]; 24 hours after administration) was “could be imaged”, the “dye retention in formalin fixed tissues” value ([1]; data not shown) was “several weeks” and the “tolerance of dye accumulation in tumors to fixation” value ([1]; mouse, in vivo) was “can tolerate fixation with both paraformaldehyde and glutaraldehyde”. The toxicity ([2]; 20 μg/Kg (100× of the imaging dose), 28 day period) was “not toxic”, the body weight ([2]; dose 1X (imaging dose 0.2 μg/Kg), 0 day) was 20.29 g and the body weight ([2]; dose 1X, 1 day) was 20.20 g. For the same compound, the body weight ([2]; dose 1X, 2 day) was 20.23 g, the body weight ([2]; dose 1X, 3 day) was 20.32 g and the body weight ([2]; dose 1X, 4 day) was 20.34 g. For the same compound, the body weight ([2]; dose 1X, 5 day) was 21.00 g, the body weight ([2]; dose 1X, 6 day) was 21.87 g and the body weight ([2]; dose 1X, 7 day) was 22.32 g. The body weight ([2]; dose 1X, 14 day) was 23.91 g, the body weight ([2]; dose 1X, 28 day) was 24.86 g and the body weight ([2]; dose 10X, 0 day) was 20.57 g. For the same compound, the body weight ([2]; dose 10X, 1 day) was 20.61 g, the body weight ([2]; dose 10X, 2 day) was 20.59 g and the body weight ([2]; dose 10X, 3 day) was 20.98 g. The body weight ([2]; dose 10X, 4 day) was 21.02 g, the body weight ([2]; dose 10X, 5 day) was 21.34 g and the body weight ([2]; dose 10X, 6 day) was 21.76 g. For the same compound, the body weight ([2]; dose 10X, 7 day) was 22.54 g, the body weight ([2]; dose 10X, 14 day) was 24.01 g and the body weight ([2]; dose 10X, 28 day) was 24.87 g. For the same compound, the body weight ([2]; dose 100X (20 μg/Kg), 0 day) was 19.85 g, the body weight ([2]; dose 100X, 1 day, zero grams means the mouse died) was 19.74 g and the body weight ([2]; dose 100X, 2 day, zero grams means the mouse died) was 20.01 g. For the same compound, the body weight ([2]; dose 100X, 3 day, zero grams means the mouse died) was 20.39 g, the body weight ([2]; dose 100X, 4 day, zero grams means the mouse died) was 20.43 g and the body weight ([2]; dose 100X, 5 day, zero grams means the mouse died) was 21.01 g. For the same compound, the body weight ([2]; dose 100X, 6 day, zero grams means the mouse died) was 21.23 g, the body weight ([2]; dose 100X, 7 day, zero grams means the mouse died) was 22.00 g and the body weight ([2]; dose 100X, 14 day, zero grams means the mouse died) was 23.76 g. The body weight ([2]; dose 100X, 28 day, zero grams means the mouse died) was 24.61 g and the Uptake [3] was “Strong”.
